The results in this text go back to patent US11534441B2, “MAP4K1 inhibitors” (Blueprint Medicines Corporation, priority 2020, dated 2022).

One may read the EC50 as the concentration giving half of the maximal effect. By IC50 is commonly meant the point on the concentration scale where inhibition reaches its midpoint.

For assay [1], the system named is expanded CD3+ T cells. Briefly: T cell enhancement of cytokines: IL2 measurement (HTRF) in expanded CD3+ T cells stimulated with anti-CD3/anti-CD28. As to conditions: IL-2 measurement. Type of assay: cell-based, human. Here is the method: T cells are isolated from whole blood of healthy donors by immunomagnetic negative selection following manufacture's protocol (StemCell Technologies, human T cell isolation kit). Purity of isolated cells is assessed by flow cytometry and yields 95-98% CD3^+ T cells. For expansion of T cells, 1×10^6 cells/well are plated in serum free cell expansion media (ThermoFisher) containing 30 U of recombinant human IL2 (R&D) and stimulated with 25 ul of CD3/CD28 beads (Invitrogen) in 24 well plates for 3-4 days. T cells are then expanded in 175 cm flasks and maintained at a cell density of 1 to 2.5×10^6 cells/ml days by addition of ⅔ of fresh media every 2-3 days. After 10-14 days, cells are frozen in BamBanker freezing media (Thermo) and stored in liquid nitrogen.
For IL2 measurement, expanded CD3^+ T cells are dispensed at 100K cells/well (cultured in X-VIVO 10 Serum-free media) and are stimulated with plate-bound anti-CD3 and soluble anti-CD28 in the presence of vehicle or compound of the disclosure at various concentrations for 24 h. As outlined in the manufacturer's protocol (Cisbio), 16 μL of conditioned media is transferred to a white 384-well low volume plate. Following a 24 h incubation with the anti-IL2 antibodies, the homogenous time resolved fluorescence (HTRF) is measured.
Background: TR-FRET usually uses a lanthanide donor and a delayed reading to cut background.

Assay [2] has as its target MAP4K1 (HPK1) (Homo sapiens (Human), UniProt Q92918). Description: MAP4K1 (HPK1) biochemical enzymatic activity, electrophoretic mobility shift (EZReader 2), ATP at APPKM (26 μM). The essentials:
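Phosphorylated and unphosphorylated peptide were separated electrophoretically, and the product/substrate peak ratio served as readout. Reactions held 0.1-15 nM HPK1, 1.5 μM fluorescent peptide and 26 μM ATP (apparent Km) in pH 7.5 HEPES buffer with MgCl2 and DTT. Compounds were tested as 4-fold, 10-point dilutions in 1% DMSO for 60-180 min at 25° C, then quenched with EDTA.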
(In general: Mobility shift assays separate free from complexed probe on a gel.)

The mark [3] stands for this setting: Homo sapiens, T-cell, class designation.
The mark [4] stands for this setting: Homo sapiens, T-cell, numeric value.

SMILES strings stand for the structures.

Chain of MAP4K1 (HPK1) (Q92918 whole entry): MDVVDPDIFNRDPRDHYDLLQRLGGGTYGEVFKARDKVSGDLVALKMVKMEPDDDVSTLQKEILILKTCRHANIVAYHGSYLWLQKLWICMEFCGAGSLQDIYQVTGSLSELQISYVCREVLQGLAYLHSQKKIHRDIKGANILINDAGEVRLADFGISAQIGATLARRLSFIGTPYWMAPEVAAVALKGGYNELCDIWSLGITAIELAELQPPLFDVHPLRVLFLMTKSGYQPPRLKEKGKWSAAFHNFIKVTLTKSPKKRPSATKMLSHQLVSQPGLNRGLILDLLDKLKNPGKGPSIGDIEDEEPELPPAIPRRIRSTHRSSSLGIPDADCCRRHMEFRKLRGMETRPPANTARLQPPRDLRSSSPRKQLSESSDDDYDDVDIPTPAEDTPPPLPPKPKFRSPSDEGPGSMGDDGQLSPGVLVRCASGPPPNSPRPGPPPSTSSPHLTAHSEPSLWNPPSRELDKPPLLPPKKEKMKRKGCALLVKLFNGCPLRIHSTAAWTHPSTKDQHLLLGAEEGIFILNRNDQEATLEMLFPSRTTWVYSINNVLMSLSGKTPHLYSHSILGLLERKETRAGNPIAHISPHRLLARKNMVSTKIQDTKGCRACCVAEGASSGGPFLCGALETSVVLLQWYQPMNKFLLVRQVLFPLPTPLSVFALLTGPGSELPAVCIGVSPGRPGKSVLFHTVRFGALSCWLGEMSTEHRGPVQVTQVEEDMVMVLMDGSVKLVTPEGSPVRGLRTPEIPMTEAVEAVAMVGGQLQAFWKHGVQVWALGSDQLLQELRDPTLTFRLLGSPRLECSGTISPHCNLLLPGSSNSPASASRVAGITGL

Consider `COc1ncc(C(C)(C)N)c2cc(Nc3ccc4c(n3)CC(C)(C)OC4=O)ncc12` [Compound 36], for which the EC50 was below 35 nM in assay [1] (setting [3]) and 15.3 nM in assay [1] (setting [4]). The IC50 in assay [2] (class designation) was below 0.3 nM; in assay [2] (numeric value), 0.17 nM.
For `COc1ncc(C(C)(C)N)c2cc(Nc3ccc4c(n3)[C@@H](C)[C@H](C)OC4=O)ncc12` [Compound 37], in that order: below 35 nM, 1.9 nM, below 0.3 nM and 0.14 nM.
The matching figures for `COc1ncc(C(C)(C)N)c2cc(Nc3ccc4c(n3)[C@H](C)[C@@H](C)OC4=O)ncc12` [Compound 38]: below 35 nM, 5.8 nM, below 0.3 nM and 0.2 nM.
The matching figures for `CCOc1ncc(C(C)(C)N)c2cc(Nc3ccc4c(n3)C(C)(C)OC4=O)ncc12` [Compound 45]: above 55 nM, 70.3 nM, 0.31 to 1 nM and 1.03 nM.
On to `COc1cnc(C(C)(C)N)c2cc(Nc3ccc4c(n3)CC(C)(C)OC4=O)ncc12` [Compound 46, 2-((5-(2-Aminopropan-2-yl)-8-methoxy-2,6-naphthyridin-3-yl)amino)-7,7-dimethyl-7,8-dihydro-5H-pyrano[4,3-b]pyridin-5-one], for which the values for the concentration for a half-maximal effect (EC50) in assay [1] (setting [3]) and in assay [1] (setting [4]) were below 35 nM and 34.3 nM, respectively. Besides, the results for the IC50 in assay [2] (class designation) and in assay [2] (numeric value) were 0.31 to 1 nM and 0.94 nM, respectively.
The matching figures for `CNc1ncc(C(C)(C)N)c2cc(Nc3cnc(C#N)c(N4CCC[C@@H]4C)n3)ncc12` [Compound 48]: above 55 nM, 136 nM, 1.1 to 10 nM and 1.72 nM.
As to `CCNc1ncc(C(C)(C)N)c2cc(Nc3ccc4c(n3)CC(C)(C)OC4=O)ncc12` [Compound 53], the EC50 was below 35 nM in assay [1] (setting [3]) and 17.2 nM in assay [1] (setting [4]). Moreover, the IC50 in assay [2] (class designation) is 0.31 to 1 nM; in assay [2] (numeric value), 0.36 nM.
For `CCOc1ncc(C(C)(C)N)c2cc(Nc3ccc4c(n3)CC(C)(C)OC4=O)ncc12` [Compound 54], the EC50 in assay [1] (setting [3]) is below 35 nM; in assay [1] (setting [4]), 9.3 nM. Moreover, the IC50 in assay [2] (class designation) is below 0.3 nM; in assay [2] (numeric value) it was 0.25 nM.
For `COc1ncc(C(C)(C)N)c2cc(Nc3ccc4c(n3)[C@H](C)C(C)(C)OC4=O)ncc12` [Compound 55], in that order: below 35 nM, 11.6 nM, below 0.3 nM and 0.18 nM.
As to `COc1ncc(C(C)(C)N)c2cc(Nc3ccc4c(n3)[C@@H](C)C(C)(C)OC4=O)ncc12` [Compound 56], the EC50 in assay [1] (setting [3]) was below 35 nM; in assay [1] (setting [4]) it was 6.6 nM. Further, the IC50 is below 0.3 nM in assay [2] (class designation) and 0.1 nM in assay [2] (numeric value).
As for `CCOc1ncc(C(C)(C)N)c2cc(Nc3ccc4c(n3)[C@@H](C)[C@H](C)OC4=O)ncc12` [Compound 57], the EC50 in assay [1] (setting [3]) was below 35 nM; in assay [1] (setting [4]), 5.1 nM. The IC50 is below 0.3 nM in assay [2] (class designation) and 0.16 nM in assay [2] (numeric value).
For `CCOc1ncc(C(C)(C)N)c2cc(Nc3ccc4c(n3)[C@H](C)[C@@H](C)OC4=O)ncc12` [Compound 58], in that order: below 35 nM, 20.4 nM, 0.31 to 1 nM and 0.39 nM.
For `CC1(C)Cc2nc(Nc3cc4c(C(C)(C)N)cnc(OC5CC5)c4cn3)ccc2C(=O)O1` [Compound 64], in that order: 35.1 to 45 nM, 42.9 nM, 0.31 to 1 nM and 0.44 nM.
Regarding `C[C@@H]1OC(=O)c2ccc(Nc3cc4c(C(C)(C)N)cnc(OC5CC5)c4cn3)nc2[C@H]1C` [Compound 66, (7S, 8R)-2-((5-(2-aminopropan-2-yl)-8-cyclopropoxy-2,7-naphthyridin-3-yl)amino)-7,8-dimethyl-7,8-dihydro-5H-pyrano[4,3-b]pyridin-5-one], the results for the EC50 in assay [1] (setting [3]) and in assay [1] (setting [4]) were below 35 nM and 8.1 nM, respectively. For the same molecule, the values for the IC50 in assay [2] (class designation) and in assay [2] (numeric value) were below 0.3 nM and 0.18 nM, respectively.
For the molecule `CCOc1ncc(C(C)(C)N)c2cc(Nc3ccc4c(n3)[C@@H](C)C(C)(C)OC4=O)ncc12` [Compound 67], the EC50 in assay [1] (setting [3]) is below 35 nM; in assay [1] (setting [4]) it was 6.2 nM. Further, the IC50 in assay [2] (class designation) was below 0.3 nM; in assay [2] (numeric value), 0.12 nM.
As for `CCOc1ncc(C(C)(C)N)c2cc(Nc3ccc4c(n3)[C@H](C)C(C)(C)OC4=O)ncc12` [Compound 68], the EC50 was below 35 nM in assay [1] (setting [3]) and 29.5 nM in assay [1] (setting [4]). The results for the IC50 in assay [2] (class designation) and in assay [2] (numeric value) were below 0.3 nM and 0.27 nM, respectively.
For `CC(C)Oc1ncc(C(C)(C)N)c2cc(Nc3ccc4c(n3)CC(C)(C)OC4=O)ncc12` [Compound 69], in that order: 45.1 to 55 nM, 52.8 nM, 0.31 to 1 nM and 0.88 nM.
For `C[C@H]1c2nc(Nc3cc4c(C(C)(C)N)cnc(OC5CC5)c4cn3)ccc2C(=O)OC1(C)C` [Compound 70], in that order: below 35 nM, 20.6 nM, 0.31 to 1 nM and 0.35 nM.
The matching figures for `C[C@@H]1c2nc(Nc3cc4c(C(C)(C)N)cnc(OC5CC5)c4cn3)ccc2C(=O)OC1(C)C` [Compound 71]: below 35 nM, 7.9 nM, below 0.3 nM and 0.11 nM.
Take `CC1(C)Cc2nc(Nc3cc4c(C(C)(C)N)cnc(OC5CCC5)c4cn3)ccc2C(=O)O1` [Compound 72, 2-((5-(2-Aminopropan-2-yl)-8-cyclobutoxy-2,7-naphthyridin-3-yl)amino)-7,7-dimethyl-7,8-dihydro-5H-pyrano[4,3-b]pyridin-5-one]: the EC50 in assay [1] (setting [3]) is 35.1 to 45 nM; in assay [1] (setting [4]) it was 35.5 nM. In addition, the IC50 in assay [2] (class designation) fell in the range of 0.31 to 1 nM.
In the case of `CC1(C)Cc2nc(Nc3cc4c(C(C)(C)N)cnc(OCC(F)F)c4cn3)ccc2C(=O)O1` [Compound 73], the EC50 is below 35 nM in assay [1] (setting [3]) and 23.7 nM in assay [1] (setting [4]). In addition, the IC50 in assay [2] (class designation) was below 0.3 nM; in assay [2] (numeric value) it was 0.22 nM.
For `CC1(C)Cc2nc(Nc3cc4c([C@](C)(N)C5CC5)cnc(OC5CC5)c4cn3)ccc2C(=O)O1` [Compound 74, R-2-((5-(1-amino-1-cyclopropylethyl)-8-cyclopropoxy-2,7-naphthyridin-3-yl)amino)-7,7-dimethyl-7,8-dihydro-5H-pyrano[4,3-b]pyridin-5-one], in that order: below 35 nM, 22.2 nM, below 0.3 nM and 0.12 nM.
For `CC1(C)Cc2nc(Nc3cc4c(C(C)(C)N)cnc(OCC(F)(F)F)c4cn3)ccc2C(=O)O1` [Compound 77], in that order: below 35 nM, 32.5 nM, 0.31 to 1 nM and 0.65 nM.
The matching figures for `C[C@@H]1OC(=O)c2ccc(Nc3cc4c(C(C)(C)N)cnc(OCC(F)(F)F)c4cn3)nc2[C@H]1C` [Compound 78]: below 35 nM, 11.6 nM, below 0.3 nM and 0.19 nM.
`CC[C@@](C)(N)c1cnc(OC2CC2)c2cnc(Nc3ccc4c(n3)[C@@H](C)[C@H](C)OC4=O)cc12` [Compound 80]: the half-maximal effective concentration (EC50) is below 35 nM in assay [1] (class designation) and 4.1 nM in assay [1] (numeric value). Besides, the IC50 is below 0.3 nM in assay [2] (class designation) and 0.08 nM in assay [2] (numeric value).
As to `C[C@@H]1OC(=O)c2ccc(Nc3cc4c(C(C)(C)N)cnc(OC5(C)CC5)c4cn3)nc2[C@H]1C` [Compound 82], the EC50 is below 35 nM in assay [1] (setting [3]) and 20.8 nM in assay [1] (setting [4]). Moreover, the IC50 in assay [2] (class designation) was below 0.3 nM; in assay [2] (numeric value) it was 0.16 nM.
For `C[C@@H]1c2nc(Nc3cc4c(C(C)(C)N)cnc(OC5(C)CC5)c4cn3)ccc2C(=O)OC1(C)C` [Compound 83], in that order: below 35 nM, 28.7 nM, below 0.3 nM and 0.19 nM.
For the molecule `CC[C@](C)(N)c1cnc(OC2(C)CC2)c2cnc(Nc3ccc4c(n3)[C@@H](C)[C@H](C)OC4=O)cc12` [Compound 85], the EC50 in assay [1] (class designation) is 35.1 to 45 nM; in assay [1] (numeric value) it was 36.1 nM. Further, the IC50 was below 0.3 nM in assay [2] (class designation) and 0.22 nM in assay [2] (numeric value).
Consider `CC[C@](C)(N)c1cnc(OC2(C)CC2)c2cnc(Nc3ccc4c(n3)[C@@H](C)C(C)(C)OC4=O)cc12` [Compound 87], for which the values for the EC50 in assay [1] (class designation) and in assay [1] (numeric value) were below 35 nM and 31.6 nM, respectively. Moreover, the IC50 is 0.31 to 1 nM in assay [2] (class designation) and 0.44 nM in assay [2] (numeric value).
For `C[C@@H]1OC(=O)c2ccc(Nc3cc4c([C@@](C)(N)C5CC5)cnc(OC5(C)CC5)c4cn3)nc2[C@H]1C` [Compound 88], in that order: below 35 nM, 11.5 nM, below 0.3 nM and 0.16 nM.
